We go through 3 molecules from ChEMBL document CHEMBL5715954, “Silencing c-Myc translation as a therapeutic strategy through targeting PI3Kδ and CK1ε in hematological malignancies” (Blood, 2017).

Set-up in all cases: scale not given: the % may be the effect or the level left
The target of assay [1] is Serine/threonine-protein kinase N2 (Homo sapiens) (UniProt Q16513). Kind of assay: Inhibition of human PKN2 assessed as enzyme activity at 1 uM using KKLNRTLSVA as substrate preincubated for 20 mins followed by [gamma-33P]-ATP addition and measured after 120 mins by radiometric Hot-SpotSM Kinase assay relative to control.
Sequence of Serine/threonine-protein kinase N2 (Homo sapiens) (Q16513 whole entry, looked up): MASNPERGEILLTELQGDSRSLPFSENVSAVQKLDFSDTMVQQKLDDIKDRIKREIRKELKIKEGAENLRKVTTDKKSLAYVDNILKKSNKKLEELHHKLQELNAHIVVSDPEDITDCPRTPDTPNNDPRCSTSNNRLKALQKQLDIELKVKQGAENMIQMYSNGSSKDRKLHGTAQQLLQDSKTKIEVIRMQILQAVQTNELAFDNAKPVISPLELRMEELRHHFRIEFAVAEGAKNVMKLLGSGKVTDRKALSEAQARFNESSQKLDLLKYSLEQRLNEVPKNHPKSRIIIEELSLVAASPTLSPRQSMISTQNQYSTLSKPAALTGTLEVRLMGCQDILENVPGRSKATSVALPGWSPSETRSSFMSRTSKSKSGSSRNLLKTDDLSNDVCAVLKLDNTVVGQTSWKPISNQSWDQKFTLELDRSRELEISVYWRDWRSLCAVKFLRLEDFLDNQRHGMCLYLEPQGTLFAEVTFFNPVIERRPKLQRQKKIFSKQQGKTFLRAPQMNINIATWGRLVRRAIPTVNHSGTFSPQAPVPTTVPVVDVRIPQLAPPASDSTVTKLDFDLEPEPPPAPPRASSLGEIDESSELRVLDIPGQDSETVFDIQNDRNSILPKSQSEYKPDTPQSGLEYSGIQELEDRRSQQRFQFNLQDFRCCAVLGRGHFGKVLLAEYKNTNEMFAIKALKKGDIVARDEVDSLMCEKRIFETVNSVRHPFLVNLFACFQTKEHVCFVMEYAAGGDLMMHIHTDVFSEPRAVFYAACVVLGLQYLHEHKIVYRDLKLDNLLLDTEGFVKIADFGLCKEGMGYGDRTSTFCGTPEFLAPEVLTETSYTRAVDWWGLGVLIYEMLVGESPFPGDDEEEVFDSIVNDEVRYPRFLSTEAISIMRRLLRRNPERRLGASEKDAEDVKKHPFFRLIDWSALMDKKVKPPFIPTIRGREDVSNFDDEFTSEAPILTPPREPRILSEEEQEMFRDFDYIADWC
Assay [2] has as its target T1, Serine/threonine-protein kinase STK11 (Homo sapiens) (UniProt Q15831).
T1 sequence (whole entry): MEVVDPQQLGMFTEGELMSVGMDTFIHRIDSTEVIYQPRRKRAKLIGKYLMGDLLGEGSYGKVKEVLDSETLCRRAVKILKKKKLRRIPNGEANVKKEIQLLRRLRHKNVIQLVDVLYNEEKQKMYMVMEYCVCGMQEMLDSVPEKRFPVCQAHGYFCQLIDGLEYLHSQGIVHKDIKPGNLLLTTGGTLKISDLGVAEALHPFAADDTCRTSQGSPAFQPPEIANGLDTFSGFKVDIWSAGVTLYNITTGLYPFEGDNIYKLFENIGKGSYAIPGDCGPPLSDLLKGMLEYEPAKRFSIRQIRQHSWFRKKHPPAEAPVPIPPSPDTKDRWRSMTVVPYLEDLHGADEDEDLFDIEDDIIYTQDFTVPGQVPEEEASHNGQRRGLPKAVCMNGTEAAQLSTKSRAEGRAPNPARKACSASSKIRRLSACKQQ
The assay can be described thus: Inhibition of human LKB1 assessed as enzyme activity at 1 uM using LSNLYHQGKFLQTFCGSPLYRRR as substrate preincubated for 20 mins followed by [gamma-33P]-ATP addition and measured after 120 mins by radiometric Hot-SpotSM Kinase assay relative to control.

The target of assay [3] is T2, Mitogen-activated protein kinase kinase kinase 6 (Homo sapiens) (UniProt O95382).
T2 sequence (whole entry): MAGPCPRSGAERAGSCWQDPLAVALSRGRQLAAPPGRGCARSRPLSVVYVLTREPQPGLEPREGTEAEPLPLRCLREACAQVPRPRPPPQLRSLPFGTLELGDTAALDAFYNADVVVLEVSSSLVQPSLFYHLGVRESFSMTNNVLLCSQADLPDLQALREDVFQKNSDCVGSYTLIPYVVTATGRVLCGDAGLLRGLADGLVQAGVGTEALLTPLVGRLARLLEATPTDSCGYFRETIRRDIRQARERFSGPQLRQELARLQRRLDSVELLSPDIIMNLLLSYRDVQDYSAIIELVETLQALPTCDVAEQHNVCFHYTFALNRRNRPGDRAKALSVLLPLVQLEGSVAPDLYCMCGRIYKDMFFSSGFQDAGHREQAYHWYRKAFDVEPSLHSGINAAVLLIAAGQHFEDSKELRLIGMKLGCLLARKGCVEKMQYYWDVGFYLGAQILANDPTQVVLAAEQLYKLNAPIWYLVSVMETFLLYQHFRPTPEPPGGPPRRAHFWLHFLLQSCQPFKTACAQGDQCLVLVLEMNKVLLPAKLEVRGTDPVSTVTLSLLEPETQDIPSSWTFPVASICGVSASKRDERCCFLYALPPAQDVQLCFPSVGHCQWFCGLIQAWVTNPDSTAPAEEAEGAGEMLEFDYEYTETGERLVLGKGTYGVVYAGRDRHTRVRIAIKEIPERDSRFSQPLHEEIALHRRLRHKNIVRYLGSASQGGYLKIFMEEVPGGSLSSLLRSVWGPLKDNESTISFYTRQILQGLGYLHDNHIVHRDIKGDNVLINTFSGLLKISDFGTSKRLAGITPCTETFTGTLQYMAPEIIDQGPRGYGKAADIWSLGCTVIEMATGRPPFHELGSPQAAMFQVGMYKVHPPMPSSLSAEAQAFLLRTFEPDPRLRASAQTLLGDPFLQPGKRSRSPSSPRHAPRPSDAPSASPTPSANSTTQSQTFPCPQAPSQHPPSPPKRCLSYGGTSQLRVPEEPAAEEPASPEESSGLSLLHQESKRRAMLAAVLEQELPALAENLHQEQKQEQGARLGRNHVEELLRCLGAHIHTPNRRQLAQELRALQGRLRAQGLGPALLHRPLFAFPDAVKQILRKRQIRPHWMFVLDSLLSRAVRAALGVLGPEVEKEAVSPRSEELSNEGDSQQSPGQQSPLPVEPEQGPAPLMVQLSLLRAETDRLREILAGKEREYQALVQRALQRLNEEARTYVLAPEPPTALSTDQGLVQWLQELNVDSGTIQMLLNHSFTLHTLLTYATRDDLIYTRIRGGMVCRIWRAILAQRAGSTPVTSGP
Kind of assay: Inhibition of human MEKK6 assessed as enzyme activity at 1 uM using myelin basic protein as substrate preincubated for 20 mins followed by [gamma-33P]-ATP addition and measured after 120 mins by radiometric Hot-SpotSM Kinase assay relative to control.

Assay [4] concerns the target T3, Testis-specific serine/threonine-protein kinase 2 (Homo sapiens) (UniProt Q96PF2).
T3 sequence (whole entry): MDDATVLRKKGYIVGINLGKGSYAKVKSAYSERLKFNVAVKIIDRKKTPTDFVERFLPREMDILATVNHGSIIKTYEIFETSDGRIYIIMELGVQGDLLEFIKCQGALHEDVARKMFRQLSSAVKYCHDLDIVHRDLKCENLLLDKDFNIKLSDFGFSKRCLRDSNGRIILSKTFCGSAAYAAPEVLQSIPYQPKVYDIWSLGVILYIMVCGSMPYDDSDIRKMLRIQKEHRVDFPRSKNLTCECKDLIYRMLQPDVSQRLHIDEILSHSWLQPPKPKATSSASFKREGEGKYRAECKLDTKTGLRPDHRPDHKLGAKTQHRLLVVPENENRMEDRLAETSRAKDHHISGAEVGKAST
The assay can be described thus: Inhibition of human TSSK2 assessed as enzyme activity at 1 uM using KKKVSRSGLYRSPSMPENLNRPR as substrate preincubated for 20 mins followed by [gamma-33P]-ATP addition and measured after 120 mins by radiometric Hot-SpotSM Kinase assay relative to control.

For assay [5], the target named is Protein kinase C eta type (Homo sapiens) (UniProt P24723). Kind of assay: Inhibition of human PKCeta assessed as enzyme activity at 1 uM using ERMRPRKRQGSVRRRV as substrate preincubated for 20 mins followed by [gamma-33P]-ATP addition and measured after 120 mins by radiometric Hot-SpotSM Kinase assay relative to control.
Sequence of Protein kinase C eta type (Homo sapiens) (P24723 whole entry, canonical isoform): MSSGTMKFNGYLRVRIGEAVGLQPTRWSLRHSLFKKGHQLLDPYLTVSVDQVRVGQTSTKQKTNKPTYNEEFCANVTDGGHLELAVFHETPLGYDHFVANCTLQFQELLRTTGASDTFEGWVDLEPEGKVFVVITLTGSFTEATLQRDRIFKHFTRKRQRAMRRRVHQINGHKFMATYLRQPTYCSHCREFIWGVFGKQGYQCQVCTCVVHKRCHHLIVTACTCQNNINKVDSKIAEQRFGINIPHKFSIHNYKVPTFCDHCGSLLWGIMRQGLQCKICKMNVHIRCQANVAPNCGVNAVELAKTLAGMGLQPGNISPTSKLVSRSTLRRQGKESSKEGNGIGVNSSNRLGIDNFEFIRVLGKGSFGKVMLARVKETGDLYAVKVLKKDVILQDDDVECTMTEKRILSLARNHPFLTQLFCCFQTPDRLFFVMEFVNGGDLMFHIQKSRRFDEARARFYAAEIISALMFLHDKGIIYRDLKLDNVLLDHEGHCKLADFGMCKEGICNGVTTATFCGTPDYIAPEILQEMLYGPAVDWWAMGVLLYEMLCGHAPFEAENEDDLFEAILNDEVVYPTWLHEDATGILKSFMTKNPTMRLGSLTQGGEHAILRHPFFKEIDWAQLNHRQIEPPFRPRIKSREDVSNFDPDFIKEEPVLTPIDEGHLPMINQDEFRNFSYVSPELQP
For assay [6], the target named is Casein kinase I isoform alpha (Homo sapiens) (UniProt P48729). Kind of assay: Inhibition of human CK1a1 assessed as enzyme activity at 1 uM using KRRRAL[pS]VASLPGL as substrate preincubated for 20 mins followed by [gamma-33P]-ATP addition and measured after 120 mins by radiometric Hot-SpotSM Kinase assay relative to control.
Sequence of Casein kinase I isoform alpha (Homo sapiens) (P48729 2-337 limits assumed): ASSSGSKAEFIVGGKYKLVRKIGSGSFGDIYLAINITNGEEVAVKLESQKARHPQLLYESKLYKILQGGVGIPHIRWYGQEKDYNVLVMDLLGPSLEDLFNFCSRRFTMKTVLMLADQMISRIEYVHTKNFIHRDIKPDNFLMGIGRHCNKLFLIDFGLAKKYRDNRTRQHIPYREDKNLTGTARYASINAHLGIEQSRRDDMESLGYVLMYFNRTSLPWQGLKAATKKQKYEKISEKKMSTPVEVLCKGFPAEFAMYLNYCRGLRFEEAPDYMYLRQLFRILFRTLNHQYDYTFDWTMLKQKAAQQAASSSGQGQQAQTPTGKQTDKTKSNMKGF
The target in assay [7] is Tyrosine-protein kinase Fes/Fps (Homo sapiens) (UniProt P07332). The assay can be described thus: Inhibition of human FES/FPS assessed as enzyme activity at 1 uM using poly[Glu:Tyr] (4:1) as substrate preincubated for 20 mins followed by [gamma-33P]-ATP addition and measured after 120 mins by radiometric Hot-SpotSM Kinase assay relative to control.
Sequence of Tyrosine-protein kinase Fes/Fps (Homo sapiens) (P07332 whole entry): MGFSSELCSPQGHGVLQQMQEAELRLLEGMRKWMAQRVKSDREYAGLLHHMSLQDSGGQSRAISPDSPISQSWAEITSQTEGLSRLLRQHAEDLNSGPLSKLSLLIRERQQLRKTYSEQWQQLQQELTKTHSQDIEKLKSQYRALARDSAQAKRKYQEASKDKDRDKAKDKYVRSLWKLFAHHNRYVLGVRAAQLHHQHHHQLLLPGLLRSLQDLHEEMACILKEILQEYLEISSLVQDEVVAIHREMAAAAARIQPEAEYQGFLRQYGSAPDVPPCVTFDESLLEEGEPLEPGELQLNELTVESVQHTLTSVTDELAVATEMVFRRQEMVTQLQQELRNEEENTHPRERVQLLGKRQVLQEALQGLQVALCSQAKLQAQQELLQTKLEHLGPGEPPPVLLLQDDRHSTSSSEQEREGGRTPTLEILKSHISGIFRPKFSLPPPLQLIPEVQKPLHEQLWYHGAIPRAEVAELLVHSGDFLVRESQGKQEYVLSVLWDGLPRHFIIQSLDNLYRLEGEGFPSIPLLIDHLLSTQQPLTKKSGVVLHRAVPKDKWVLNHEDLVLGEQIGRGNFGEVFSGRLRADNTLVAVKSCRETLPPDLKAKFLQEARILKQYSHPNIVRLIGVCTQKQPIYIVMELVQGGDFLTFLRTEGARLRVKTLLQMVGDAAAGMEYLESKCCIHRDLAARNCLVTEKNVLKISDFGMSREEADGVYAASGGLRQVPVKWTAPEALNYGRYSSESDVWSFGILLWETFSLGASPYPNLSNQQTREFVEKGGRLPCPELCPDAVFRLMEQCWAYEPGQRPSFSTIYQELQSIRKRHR

Structures are written as SMILES.

`C[C@H](Nc1ncnc2nc[nH]c12)c1cc2cccc(Cl)c2c(=O)n1-c1ccccc1`: the Activity in assay [1] was 84.5%; in assay [2], 93%; in assay [3], 97.5%; in assay [4], 98%; in assay [5], 87.7%; in assay [6] it was 111%. For the same molecule, the Activity in assay [7] came to 95.6%.
Turning to `CC[C@H](Nc1ncnc2[nH]cnc12)c1nc2cccc(F)c2c(=O)n1-c1ccccc1`, the Activity was 84.7% in assay [1]; 104% in assay [2]; 96.6% in assay [3]; 104% in assay [4]; 88.5% in assay [5]; 107% in assay [6]. Also, the Activity in assay [7] is 91.5%.
Regarding `CC(C)Oc1ccc(-c2nn([C@@H](C)c3oc4ccc(F)cc4c(=O)c3-c3cccc(F)c3)c3ncnc(N)c23)cc1F` [UMBRALISIB], the Activity stood at 84.4% in assay [1]; 100% in assay [2]; 93.9% in assay [3]; 100% in assay [4]; 88.4% in assay [5]; 111% in assay [6]. In assay [7], the Activity was 97.5%.
